Experimental data taken from patent publication US20080318933A1, “5-Sulfonyl-1-Piperidinyl Substituted Indole Derivatives as 5-Ht6 Receptor Antagonists for the Treatment of Cns Disorders” (Glaxo Group Limited, priority 2004, published 2008).
Where a name gives a salt, the structure may show the parent alone.

Biological target: T1, human cloned 5-HT6 receptors (Homo sapiens, UniProt P50406)
T1 construct: expressed in transfected cells; host or cells: HeLa cells expressing cloned human 5-HT6 receptor (membranes)
T1 sequence (P50406 whole entry): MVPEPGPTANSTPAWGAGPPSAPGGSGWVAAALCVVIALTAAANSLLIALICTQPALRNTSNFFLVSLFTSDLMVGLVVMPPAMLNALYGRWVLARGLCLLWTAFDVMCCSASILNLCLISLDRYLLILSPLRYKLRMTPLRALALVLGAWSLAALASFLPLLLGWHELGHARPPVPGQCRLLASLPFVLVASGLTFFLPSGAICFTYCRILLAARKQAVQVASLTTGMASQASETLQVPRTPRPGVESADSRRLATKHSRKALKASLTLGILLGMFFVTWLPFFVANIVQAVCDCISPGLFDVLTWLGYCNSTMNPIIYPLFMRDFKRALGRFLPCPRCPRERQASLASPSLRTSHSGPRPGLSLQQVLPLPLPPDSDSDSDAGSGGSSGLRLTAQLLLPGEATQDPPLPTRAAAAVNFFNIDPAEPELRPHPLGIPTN
Test: Cyclase assay (cAMP production in membranes of HeLa 5HT6 cells, 5-HT stimulated)
Assay type: biochemical
Settings: 5-HT at 4xEC50, functional Ki by Cheng-Prusoff, read-out: pKi values (converted)
Experimental: 0.5 μl of test compound in 100% dimethylsulfoxide (DMSO) was added to a white, solid 384 well assay plate (for dose response measurements the top of the concentration range is 7.5 μM final). 10 μl of washed membranes of HeLa 5HT6 cells (for preparation see WO 98/27081) in basic buffer (50 mM HEPES pH 7.4 (KOH), 10 mM MgCl2, 100 mM NaCl, 10 μM 3-isobutyl-1-methylxanthine (IBMX) (Sigma-Aldrich)) was added to all wells followed by 10 μl 2×ATP buffer (i.e. basic buffer containing 3 mM ATP) with 5-HT (at a concentration equivalent to a dose response of 4×EC50). The resultant mixture was then incubated at room temperature for 30-45 minutes to allow cAMP production. cAMP production was then measured using the DiscoveRX™ HitHunter™ chemiluminescence cAMP assay kit (DiscoveRx Corporation, 42501 Albrae Street, Fremont, Calif. 94538; Product Code: 90-0004L) or any other suitable cAMP measurement assay.
IC50 values were estimated from arbitrary designated unit (ADU) measurements from a Perkin Elmer Viewlux instrument using a four parameter logistic curve fit within EXCEL (Bowen, W. P. and Jerman, J. C. (1995), Nonlinear regression using spreadsheets. Trends in Pharmacol. Sci., 16, 413-417). Functional Ki values were calculated using the method of Cheng, Y. C. and Prussof, W. H. (Biochemical Pharmacol (1973) 22 3099-3108). plC50 and fpKi are the negative log 10 of the molar IC50 and functional Ki respectively.

SMILES | Ki [nM]
O=S(=O)(c1ccc2c(ccn2C2CCNCC2)c1)c1ccccc1F [Example E14, 5-[(2-fluorophenyl)sulfonyl]-1-(4-piperidinyl)-1H-indole hydrochloride] | ≤ 10
CN1CCC(N2CCc3cc(S(=O)(=O)c4cc(F)cc(F)c4)ccc32)CC1 [Example E50, 5-[(3,5-Difluorophenyl)sulfonyl]-1-(1-methyl-4-piperidinyl)-2,3-dihydro-1H-indole hydrochloride] | ≤ 10
CCN1CCC(N2CCc3cc(S(=O)(=O)c4cc(F)ccc4F)ccc32)CC1 [Example E42, 5-[(2,5-Difluorophenyl)sulfonyl]-1-(1-ethyl-4-piperidinyl)-2,3-dihydro-1H-indole hydrochloride] | ≤ 10
CN1CCC(N2CCc3cc(S(=O)(=O)c4ccc(F)cc4)ccc32)CC1 [Example E41, 5-[(4-Fluorophenyl)sulfonyl]-1-(1-methyl-4-piperidinyl)-2,3-dihydro-1H-indole hydrochloride] | ≤ 10
Cc1cn(C2CCNCC2)c2ccc(S(=O)(=O)c3ccccc3)cc12 [Example E65, 3-Methyl-5-(phenylsulfonyl)-1-(4-piperidinyl)-1H-indole hydrochloride] | ≤ 10
CCN1CCC(N2CCc3cc(S(=O)(=O)c4cccc(F)c4)ccc32)CC1 [Example E55, 5-[(3-Fluorophenyl)sulfonyl]-1-(1-ethyl-4-piperidinyl)-2,3-dihydro-1H-indole hydrochloride] | ≤ 10
CN1CCCC(N2CCc3cc(S(=O)(=O)c4ccccc4)ccc32)CC1 (stereo not shown) [Example E31, 1-(1-Methylhexahydro-1H-azepin-4-yl)-5-(phenylsulfonyl)-2,3-dihydro-1H-indole hydrochloride] | ≤ 10
CCN1CCC(n2ccc3cc(S(=O)(=O)c4cccc(F)c4)ccc32)CC1 [Example E33, 1-(1-Ethyl-4-piperidinyl)-5-[(3-fluorophenyl)sulfonyl]-1H-indole hydrochloride] | ≤ 10
CCN1CCC(n2ccc3cc(S(=O)(=O)c4cc(F)cc(F)c4)ccc32)CC1 [Example E35, 1-(1-Ethyl-4-piperidinyl)-5-[(3,5-difluorophenyl)sulfonyl]-1H-indole hydrochloride] | ≤ 10
CC(C)N1CCC(N2CCc3cc(S(=O)(=O)c4cc(F)ccc4F)ccc32)CC1 [Example E43, 5-[(2,5-Difluorophenyl)sulfonyl]-1-[1-(1-methylethyl)-4-piperidinyl]-2,3-dihydro-1H-indole hydrochloride] | ≤ 10
CC1(N2CCc3cc(S(=O)(=O)c4ccccc4)ccc32)CCNCC1 [Example E7, 1-(4-Methyl-4-piperidinyl)-5-(phenylsulfonyl)-2,3-dihydro-1H-indole hydrochloride] | < 316
CCCN1CCC(N2CCc3cc(S(=O)(=O)c4cccc(F)c4)ccc32)CC1 [Example E56, 5-[(3-Fluorophenyl)sulfonyl]-1-(1-propyl-4-piperidinyl)-2,3-dihydro-1H-indole hydrochloride] | ≤ 10
CCN1CCC(N2CCc3cc(S(=O)(=O)c4ccccc4)ccc32)CC1 [Example E39, 1-(1-Ethyl-4-piperidinyl)-5-(phenylsulfonyl)-2,3-dihydro-1H-indole hydrochloride] | ≤ 10
O=S(=O)(c1ccccc1)c1cc(Cl)c2c(c1)CCN2C1CCNCC1 [Example E19a, 7-Chloro-5-(phenylsulfonyl)-1-(4-piperidinyl)-2,3-dihydro-1H-indole hydrochloride] | ≤ 10
CC(C)(C)CN1CCC(N2CCc3cc(S(=O)(=O)c4ccccc4)ccc32)CC1 [Example E38, 1-[1-(2,2-dimethylpropyl)-4-piperidinyl]-5-(phenylsulfonyl)-2,3-dihydro 1H-indole] | < 316
CCN1CCC(N2CCc3cc(S(=O)(=O)c4cc(F)cc(F)c4)ccc32)CC1 [Example E51, 5-[(3,5-Difluorophenyl)sulfonyl]-1-(1-ethyl-4-piperidinyl)-2,3-dihydro-1H-indole hydrochloride] | ≤ 10
O=S(=O)(c1cccc(F)c1)c1ccc2c(ccn2C2CCNCC2)c1 [Example E22, 5-[(3-Fluorophenyl)sulfonyl]-1-(4-piperidinyl)-1H-indole hydrochloride] | ≤ 10
CN1CCC(N2CCc3cc(S(=O)(=O)c4ccccc4)ccc32)C1 (stereo not shown) [Example E30, 1-(1-Methyl-3-pyrrolidinyl)-5-(phenylsulfonyl)-2,3-dihydro-1H-indole hydrochloride] | ≤ 10
O=S(=O)(c1ccccc1)c1cc(F)c2c(c1)CCN2C1CCNCC1 [Example E18a, 7-Fluoro-5-(phenylsulfonyl)-1-(4-piperidinyl)-2,3-dihydro-1H-indole hydrochloride] | ≤ 10
CCCN1CCC(N2CCc3cc(S(=O)(=O)c4ccccc4)ccc32)CC1 [Example E40, 5-(Phenylsulfonyl)-1-(1-propyl-4-piperidinyl)-2,3-dihydro-1H-indole hydrochloride] | ≤ 10
CN1CCC(N2CCc3cc(S(=O)(=O)c4ccc(F)c(F)c4)ccc32)CC1 [Example E59, 5-[(3,4-Difluorophenyl)sulfonyl]-1-(1-methyl-4-piperidinyl)-2,3-dihydro-1H-indole hydrochloride] | ≤ 10
CCCN1CCC(N2CCc3cc(S(=O)(=O)c4cccc(C)c4)ccc32)CC1 [Example E64, 5-[(3-Methylphenyl)sulfonyl]-1-(1-propyl-4-piperidinyl)-2,3-dihydro-1H-indole hydrochloride] | ≤ 10
CCN1CCC(N2CCc3cc(S(=O)(=O)c4cccc(Cl)c4)ccc32)CC1 [Example E54, 5-[((3-Chlorophenyl)sulfonyl]-1-(1-ethyl-4-piperidinyl)-2,3-dihydro-1H-indole hydrochloride] | ≤ 10
O=S(=O)(c1ccccc1)c1ccc2c(c1)CCN2C1CCN2CCCC2C1 (stereo not shown) [Example E6, 1-(Octahydro-7-indolizinyl)-5-(phenylsulfonyl)-2,3-dihydro-1H-indole hydrochloride] | ≤ 10
Cc1nn(C)c(C)c1S(=O)(=O)c1ccc2c(c1)CCN2C1CCNCC1 [Example E29, 1-(4-Piperidinyl)-5-[(1,3,5-trimethyl-1H-pyrazol-4-yl)sulfonyl]-2,3-dihydro-1H-indole hydrochloride] | < 316

The remaining lines, values ahead:

Ki [nM] | SMILES
≤ 10 | O=S(=O)(c1ccc2c(c1)CCN2C1CCNCC1)c1ccccc1F [Example E9, 5-[(2-Fluorophenyl)sulfonyl]-1-(4-piperidinyl)-2,3-dihydro-1H-indole hydrochloride]
≤ 10 | CC(C)N1CCC(N2CCc3cc(S(=O)(=O)c4ccccc4F)ccc32)CC1 [Example E45, 5-[(2-Fluorophenyl)sulfonyl]-1-[1-(1-methylethyl)-4-piperidinyl]-2,3-dihydro-1H-indole hydrochloride]
≤ 10 | COc1cccc(S(=O)(=O)c2ccc3c(c2)CCN3C2CCNCC2)c1 [Example E23, 5-{[3-(Methyloxy)phenyl]sulfonyl}-1-(4-piperidinyl)-2,3-dihydro-1H-indole hydrochloride]
≤ 10 | O=S(=O)(c1ccc(Cl)cc1)c1ccc2c(c1)CCN2C1CCNCC1 [Example E13, 5-[(4-Chlorophenyl)sulfonyl]-1-(4-piperidinyl)-2,3-dihydro-1H-indole hydrochloride]
≤ 10 | O=S(=O)(c1cccc(Cl)c1)c1ccc2c(c1)CCN2C1CCNCC1 [Example E24, 5-[(3-Chlorophenyl)sulfonyl]-1-(4-piperidinyl)-2,3-dihydro-1H-indole hydrochloride]
≤ 10 | O=S(=O)(c1cccc(F)c1)c1ccc2c(c1)CCN2C1CCNCC1 [Example E8, 5-[(3-Fluorophenyl)sulfonyl]-1-(4-piperidinyl)-2,3-dihydro-1H-indole hydrochloride]
≤ 10 | N#Cc1cccc(S(=O)(=O)c2ccc3c(c2)CCN3C2CCNCC2)c1 [Example E21, 3-{[1-(4-Piperidinyl)-2,3-dihydro-1H-indol-5-yl]sulfonyl}benzonitrile hydrochloride]
≤ 10 | CCN1CCC(N2CCc3cc(S(=O)(=O)c4ccccc4F)ccc32)CC1 [Example E58, 5-[(2-Fluorophenyl)sulfonyl]-1-(1-ethyl-4-piperidinyl)-2,3-dihydro-1H-indole hydrochloride]
≤ 10 | CCCN1CCC(N2CCc3cc(S(=O)(=O)c4ccccc4F)ccc32)CC1 [Example E46, 5-[(2-Fluorophenyl)sulfonyl]-1-(1-propyl-4-piperidinyl)-2,3-dihydro-1H-indole hydrochloride]
≤ 10 | O=S(=O)(c1ccc2c(c1)CCN2C1CCNCC1)c1ccccc1Cl [Example E12, 5-[(2-Chlorophenyl)sulfonyl]-1-(4-piperidinyl)-2,3-dihydro-1H-indole hydrochloride]
≤ 10 | Cc1ccc(S(=O)(=O)c2ccc3c(c2)CCN3C2CCNCC2)cc1 [Example E11, 5-[(4-methylphenyl)sulfonyl]-1-(4-piperidinyl)-2,3-dihydro-1H-indole]
≤ 10 | O=S(=O)(c1ccc(F)c(F)c1)c1ccc2c(c1)CCN2C1CCNCC1 [Example E25, 5-[(3,4-Difluorophenyl)sulfonyl]-1-(4-piperidinyl)-2,3-dihydro-1H-indole hydrochloride]
